PubChem BioAssay AID179 (DTP/NCI, 2004)
Values joined by “and” are separate entries in the source; they are usually repeats but may differ in a detail not shown here. Equal values may be shown once. Active and inactive are the calls of the source.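 The calls were made as follows: active = compounds giving half or more protection of infected cells from virus-caused growth loss, again on retest; inactive = the rest.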 Where a SMILES comes first, the peptide text is derived from it. [ ]: non-standard residue; d: D form. The star is where a group is joined. mTyr = N[CH](Cc1cccc(O)c1)C(=O)O; Cbz = O=C(OCc1ccccc1)*; OBn = c1ccc(CO*)cc1

Tested on: CEM cells HIV-1 protection, formazan growth assay
Experiment: NCI AIDS Antiviral Assay
Conditions: for IC50: measured here: growth of uninfected CEM cells
Procedure, shortened: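 Screen of anti-HIV-1 activity in human CEM cells using a formazan-based growth measurement at five drug concentrations. Hits with 50% or greater protection were repeated, and confirmation required reproducible complete protection.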

Compound	outcome	EC50	IC50
C=C(CS(=O)(=O)c1ccccc1)C(=O)OCC	inactive	–	–
COC(=O)C1C=NNC1C(=O)OC (centres undefined)	inactive	–	–
CN1C(=O)N/C(=N/c2nc(Cc3ccc4c(c3)OCO4)cn2C)C1=O	–	> 1.58 µM	> 1.58 µM
CNC1C(OC2C(OC3C(O)C(O)C(N=C(N)N)C(O)C3N=C(N)N)OC(C)C2(O)C=O)OC(CO)C(OC2OC(CO)C(O)C(O)C2O)C1O (centres undefined)	inactive	–	–
O=C1CC2(CCNCC2)C(=O)N1N1CCCC1	–	> 200 µM	> 200 µM
C=C1CN(S(=O)(=O)c2ccc(C)cc2)CCCN(Cc2ccc[nH]2)CCCN(S(=O)(=O)c2ccc(C)cc2)C1	–	> 200 µM	14.5 µM
C(=Nc1ccc(SSc2ccc(N=Cc3ccc4c(c3)OCO4)cc2)cc1)c1ccc2c(c1)OCO2	–	> 200 µM	23.4 µM
CN1C(=S)NC2C(O)C(O)C(CO)OC21 (centres undefined)	–	> 1070 µM	> 1070 µM
CC1=C(O)/C(=C/C(C)CCC/C(C)=C/C=C/C(C)CCCc2ccoc2)OC1=O (centres undefined)	inactive	–	–
O=c1c2ccccc2nc(-c2cccc(Cl)c2)n1NC1OC(CO)C(O)C(O)C1O (centres undefined)	inactive	–	–
C=C1C(=O)OC2CC(C)C3C(OC(C)=O)CC(OC(C)=O)C3(C)CC12 (centres undefined)	–	> 97.7 µM	6.76 µM
CC1(C)OC(=O)C(C)(C)OC1=O	–	> 200 µM	> 200 µM
COc1ccccc1Nc1nc2c([nH]1)c(=O)n(C)c(=O)n2C	–	> 200 µM	> 200 µM
Nc1ccc(C(=O)N/C(=C\c2cccc([N+](=O)[O-])c2)c2nc3ccc(Cl)cc3[nH]2)cc1	inactive	–	–
COC1C(N(C)C)=C(c2ccccc2)C(=O)N2CCc3ccccc3C12 (centres undefined)	–	> 200 µM	170 µM
CCC[CH2][Sn]1([CH2]CCC)[O]C(=O)c2cc(I)cc(I)c2[O]1	inactive	–	–
O=S(=O)(O)c1cccc(N=Nc2cc(S(=O)(=O)O)c3cccnc3c2O)c1	–	> 550 µM	> 550 µM
O=c1ssc(Cl)c1Cl	–	> 200 µM	33.9 µM
CC(C)(C)OC(=O)C1C(=O)C(C(=O)OC(C)(C)C)C2(C)C(C(=O)OC(C)(C)C)C(=O)C(C(=O)OC(C)(C)C)C12C (centres undefined)	–	> 31.6 µM	11.2 µM
COC(=O)CCCCC=C(c1cc(Cl)c(OC)c(C(=O)OC)c1)c1cc(Cl)c(OC)c(C(=O)OC)c1	–	6.76 µM	60.3 µM
CC(C)(C)C(=O)OCC(COC(=O)C(C)(C)C)[N+](=O)[O-]	inactive	–	–

Compound	outcome	EC50	IC50
O=c1cc(Cl)c(=O)n(-c2ccccc2)[nH]1	–	> 1120 µM	1070 µM
CC(=O)/C(=C/c1cccc(Cl)c1)C(=O)c1ccccc1	–	> 34.7 µM	17 µM
N=C(N)N1CCc2ccccc2C1	–	> 200 µM	> 200 µM
COC(=O)/C=C/C(=N/Nc1ccccc1)c1ccccc1	–	> 200 µM	28.8 µM
CN(C)/C=C/c1ccncc1	–	> 200 µM	145 µM
Cc1cnc([C@H]2CCC3[C@@H]4CC=C5C[C@@H](OC(=O)CCC(=O)O)CC[C@]5(C)C4CC[C@@]32C)s1 (some centres undefined)	–	> 52.5 µM	50.1 µM
CCCCc1ccc(Nc2nc(Cl)c3ncn(COCCOC(C)=O)c3n2)cc1	–	> 200 µM	13.8 µM
COC(=O)C(Cc1cccc(O)c1)NC(=O)C(CC(=O)OCc1ccccc1)NC(=O)OCc1ccccc1 (centres undefined) (Cbz-Asp(OBn)-[mTyr]-OMe; configuration not given here)	–	> 200 µM	91.2 µM
O=C(COc1ccc(Cl)cc1)N1N=C(c2ccc([N+](=O)[O-])o2)CC1(O)c1ccccc1 (centres undefined)	–	> 16.2 µM	2.88 µM
O=S(=O)(c1ccc(NC2=NC(c3ccc(O)cc3)(c3ccccc3O)c3ccccc32)cc1)c1ccc(NC2=NC(c3ccc(O)cc3)(c3ccccc3O)c3ccccc32)cc1 (centres undefined)	–	> 200 µM	3.47 µM
COc1ccc(C(=O)Nc2ccc(S(=O)(=O)c3ccc(NC(=O)c4ccccc4SSc4ccccc4C(=O)Nc4ccc(S(=O)(=O)c5ccc(NC(=O)c6ccc(OC)cc6)cc5)cc4)cc3)cc2)cc1	–	16.6 µM	151 µM
CS(=O)(=O)c1ccc(/C=C2/C=Cc3ccccc32)cc1	–	> 25.7 µM	> 25.7 µM
O=C(c1ccc(NCN2C(=O)CCC2=O)cc1)c1ccc(NCN2C(=O)CCC2=O)cc1	–	> 30.2 µM	> 30.2 µM
COc1ccc(C2OC(=O)c3c2ccc2ccccc32)c(C)c1 (centres undefined)	–	> 44.7 µM	27.5 µM
COC(=O)C1=COC(C)C2CN3CCC4(C(=O)Nc5ccccc54)C3CC12 (centres undefined)	inactive	–	–
CC(C)=Cc1cc(C(=O)Nc2ccc(Cl)c(Cl)c2)nc(N)n1	–	> 741 µM	490 µM
OC(c1ccccn1)C1CNc2ccccc21 (centres undefined)	inactive	–	–
CCC(=O)NC(Nc1cccc(F)c1C)(C(F)(F)F)C(F)(F)F	–	> 200 µM	> 200 µM
Cc1nnn[n-]1.N.N.N.N.N.[Cl-].[Co+3]	–	> 832 µM	> 832 µM
N#Cc1cc([N+](=O)[O-])ccc1NC(=O)C(=O)C(C(=O)/C=C/c1ccccc1)C1OC(=O)c2ccccc21 (centres undefined)	–	> 191 µM	> 191 µM
CC(=O)NC1C(O)OC(CO)C(O)C1OC(C)C(=O)N[C@@H](CC(N)=O)C(=O)N[C@H](CCC(=O)O)C(N)=O (some centres undefined)	–	> 468 µM	219 µM

Compound	outcome	EC50	IC50
N#C/C(=C\c1cc(Cl)cc(Cl)c1)c1ccccn1	–	> 200 µM	8.91 µM
Cc1nc2c3c(Cc4ccccc4)c(C)[nH]c3ncn2n1	–	> 200 µM	117 µM
O=c1sc2c(s1)-c1sc(=O)sc1SS2	–	> 77.6 µM	51.3 µM
Cc1ccccc1N1C(N)=C(C#N)C(C#N)(C#N)C1c1ccccc1 (centres undefined)	–	> 200 µM	12 µM
CN1CCC23c4c5ccc(O)c4OC2C(=NN=C2CCC4(O)C6Cc7ccc(O)c8c7C4(CCN6C)C2O8)CCC3(O)C1C5 (centres undefined)	–	> 200 µM	105 µM
Cc1ccc(/C=N\NC2c3cc(Cl)ccc3Nc3nc(=O)[nH]c(C)c32)cc1 (centres undefined)	–	> 200 µM	120 µM
O=C(NCC1(O)N=C(c2ccc(F)cc2)c2ccsc2-n2cccc21)c1ccc(Cl)cc1Cl (centres undefined)	–	> 200 µM	18.2 µM
Cc1cc2nc3c(C(OC4OC(CO)C(O)C(O)C4O)C(O)CO)nn(-c4ccc(F)cc4)c3nc2cc1C (centres undefined)	inactive	–	–
O=C(O)C1(Cc2ccc3c(c2)CCC3)Cc2ccccc2C1	–	> 200 µM	81.3 µM
CCOC(=O)CCC(NC(=O)OCc1ccccc1)C(=O)NC(CCC(=O)OCC)C(=O)OCC (centres undefined) (Cbz-Glu(OEt)-Glu(OEt)-OEt; configuration not given here)	–	> 200 µM	> 200 µM
CCCCCCCCCCCCCCCCOC1OC(COC(C)=O)C(OC(C)=O)C(OC(C)=O)C1O (centres undefined)	–	> 13.5 µM	> 13.5 µM
Cc1c(Cl)ccc2c1NC(=O)C2(O)CC(=O)c1cccc2ccccc12 (centres undefined)	–	> 97.7 µM	> 97.7 µM
CCOP(=O)(OCC)/C(C#N)=C/c1ccc2ccccc2c1	–	> 22.9 µM	> 22.9 µM
CC(=O)OCC(OC(C)=O)C(OC(C)=O)C(OC(C)=O)C(C=NN(C(C)=O)S(=O)(=O)c1ccc(/C=C2\NC(=O)NC2=O)cc1)OC(C)=O (centres undefined)	–	> 200 µM	87.1 µM and 117 µM
Cn1nc(Cc2ccc(Cl)cc2)n(N)c1=O	–	> 200 µM	> 200 µM
N#CC(C#N)=CN1CCOCC1	–	> 200 µM	> 200 µM
NC(=O)Nc1ccc(S(=O)(=O)c2ccc(N)cc2)cc1	–	> 200 µM	> 200 µM
CCOC(=O)C1=NN(c2ccccc2)C(=O)/C1=C\N1C(=S)NC(=O)/C1=C\c1cccc([N+](=O)[O-])c1	–	> 200 µM	89.1 µM
CN1C=c2c3c(ccc2=C2C=CC4C=C5OCOC5=CC4=C21)OCO3 (centres undefined)	–	> 20 µM	0.759 µM
O=CN1CCN(C=O)C(O)C1O (centres undefined)	–	> 200 µM	> 200 µM
O=C(/C=C\c1ccccc1O)c1ccc(O)cc1O	–	> 72.4 µM	7.24 µM

Compound	outcome	EC50	IC50
O=C(CSc1nnc(Cc2ccccc2)o1)Nc1ccc(Cl)cc1Cl	–	> 66.1 µM	> 66.1 µM
O=C1c2ccccc2-c2cc(S)c([N+](=O)[O-])cc21	–	> 200 µM	145 µM
CSC1=N/C(=C\c2ccccc2)C(=O)N1CN1CCCCC1	–	> 200 µM	115 µM
O=C(CSc1nc2ccccc2c(=O)n1-c1ccccc1)N=Nc1c(O)[nH]c2ccc(Br)cc12	–	61.7 µM	85.1 µM
COc1cccc(NC(=S)/C(=C(\[O-])c2ccc([N+](=O)[O-])cc2)[n+]2ccc(C(C)C)cc2)c1	–	> 200 µM	> 200 µM
N#Cc1cc2ccncc2c2ccccc12	–	> 33.1 µM	24 µM
CC1c2c(Cl)nc3ccccc3c2Oc2c1c(Cl)nc1ccccc21	–	> 14.1 µM	> 14.1 µM
CCSc1nc2n(c(=S)n1)CCN2C	–	> 708 µM	138 µM
CNP1(NC)=NP(NC)(NC)=NP(NC)(NC)=NP(NC)(NC)=N1	–	> 3.47 µM	> 3.47 µM
CCOC(=O)/C(SC#N)=C(/N)N1CCCC1	–	> 200 µM	> 200 µM
CC1(C)OC(=O)C(C#N)=C1/C=C/c1coc2ccc(Cl)cc2c1=O	–	> 29.5 µM	> 29.5 µM
COc1cc2c(c(C3C(=O)N(C)c4ccc(Br)cc43)c1OC)OCO2 (centres undefined)	–	> 200 µM	> 200 µM
N#Cc1nc(C#N)n(C(=O)c2ccccc2)c1NC(=O)c1ccccc1	–	> 200 µM	> 200 µM
COC(=O)Sc1c2sc(C(=O)OC)c(C)c2n2ccccc12	inactive	–	–
Cn1c(=O)c(N=Nc2c(=O)n(C)c(=O)n3c2[nH]c2ccccc23)c2[nH]c3ccccc3n2c1=O	–	> 33.9 µM	> 33.9 µM
CC(=O)Nc1ccc2cc3[nH]c4cc(NC(C)=O)ccc4c3nc2c1	–	> 200 µM	17.8 µM
CCc1cccc(CC)c1NC(=S)N/C=C(\C#N)S(=O)(=O)c1ccc(C)cc1	–	> 200 µM	> 200 µM
O=C1C=C(Nc2ccccc2)c2ccccc2C1=O	–	> 11 µM	> 11 µM
CC(=O)c1cccc(C(C)=O)c1N=Cc1ccc(O)cc1	inactive	–	–
O=c1ccn(/C=C(\c2ccccc2)S(=O)Cc2ccccc2)c(=S)[nH]1 (centres undefined)	inactive	–	–
COc1ccc(C(O)CC(O)(C(F)(F)F)C(F)(F)F)cc1 (centres undefined)	–	> 200 µM	> 100 µM
